Measurements as given in patent US11208387B2, “Macrocyclic broad spectrum antibiotics” (Genentech, Inc., priority 2019, dated 2021).
≈ marks a conversion by molar mass, not a printed value. Like-named read-outs stand apart in the source and are kept apart here.

Assays:
[1] = tested on: Acinetobacter baumannii ATCC 17978; test: Serum MIC, broth micro-dilution; assay type: cell-based; details: Acinetobacter baumannii
Method in brief: (§1)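 CLSI broth micro-dilution MIC run in 50% v/v cation-adjusted Mueller Hinton II broth plus 50% v/v mouse serum. Compounds were serially 2-fold diluted (10 concentrations) from a top concentration of 64, 4, 0.5 or 0.13 μg/mL; inoculum at final OD600 0.0005, incubated 35° C for 22 hours.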

[2] = tested on: Klebsiella pneumoniae ATCC 700603; test: Serum MIC, broth micro-dilution; assay type: cell-based; details: Klebsiella pneumoniae
Method in brief: as §1

[3] = tested on: Escherichia coli strain ATCC 25922; test: Serum MIC, broth micro-dilution; assay type: cell-based; details: Escherichia coli, read-out: E. coli 25922 Serum MIC
Method in brief: as §1

[4] = tested on: Pseudomonas aeruginosa PA01; test: Serum MIC, broth micro-dilution; assay type: cell-based; details: Pseudomonas aeruginosa, read-out: P. aeruginosa 01 Serum MIC
Method in brief: as §1

[5] = tested on: isolated liver mitochondria; test: Mitochondrial oxygen consumption rate (OCR) assay; assay type: biochemical, Sprague-Dawley rats; details: isolated rat liver mitochondria, state 3 (S3) respiration
Text: Male Sprague-Dawley rats (8-10 weeks of age) were euthanized with an overdose of carbon dioxide. The liver was rapidly excised and placed in ice-cold phosphate-buffered saline (PBS) before isolation process. Mitochondria were isolated using the MitoCheck® Mitochondrial Isolation Kit (Cayman Chemical #701010, Ann Arbor, Mich.) according to manufacturer's instructions. In brief, approximately 10-14 grams of liver tissues were finely minced using a pair of scissors, and washed repeatedly with ice-cold PBS, followed by Mito Isolation Buffer. The minced tissues were homogenized with 30 ml Mito Homogenization Buffer in 40 ml dounce homogenizer and a smooth glass grinder. The homogenate was split into two clean 30 ml polycarbonate tubes and centrifuged at 1,000×g, 4° C., for 3 minutes. The supernatant was subjected to further centrifugation at 10,000×g, 4° C., for 10 minutes. The supernatant was discarded and mitochondrial pellet was suspended in Mito Isolation Buffer using a glass stirring rod and stored on ice until use. Protein concentration of mitochondria was determined using a bicinchoninic acid protein assay kit (Thermo Scientific, Waltham, Mass.).
Oxygen consumption was monitored as essentially described by Will et al., “Analysis of mitochondrial function using phosphorescent oxygen-sensitive probes,” Nature Protocols Vol. 1(6) (2006) 2563. Briefly, isolated mitochondria (50 μg mitochondrial proteins/state 3 (S3) of mitochondrial respiration for inhibitor identification, 100 μg/S2 for uncoupler identification) were incubated with compounds in 25 μl of Measurement Buffer (MB: 250 mM sucrose, 15 mM KCl, 1 mM EGTA, 5 mM MgCl2, 30 mM K2HPO4, pH 7.4) including 1% DMSO on ice for 1 hour, then mixed with 25 μl of substrate mixture including an oxygen-sensitive phosphorescent dye (MitoXpress Xtra, Agilent, Santa Clara, Calif.), glutamate (25 mM, G1626, Sigma, St. Louis, Mo.), malate (25 mM, M6413, Sigma), ADP (3.3 mM, A2754, Sigma, only for S3 of mitochondrial respiration), Fatty acid free BSA (0.1%, A0281, Sigma), and a complex II-specific inhibitor TTFA (2 μM, T27006, Sigma for the assessment of complex I-mitochondrial respiration with glutamate/malate) in a black wall/clear bottom 384-well plate. The mixtures were covered with HS mineral oil (Agilent) using the Viaflo 384-channel pipette (Integra, Hudson, N.H.). Oxygen consumption was measured for 30 min at 30° C. using a spectrofluorimeter (FLUOstar Omega, BMG Labtech, Cary, N.C.). In S3, DMSO vehicle control and antimycin A (10 μM) were used to define 0% and 100% inhibition. In S2, DMSO vehicle and FCCP (0.5-1 μM) was used to define 0% and 100% uncoupling, respectively. Area under curve typically in a range of 0-12 min (S3) or 0-24 min (S2) was used for calculations. IC50 or UC50 (uncoupling concentration), a concentration that causes 50% of inhibition or maximal (uncoupling) activation of oxygen consumption, was used to evaluate experimental quality. Data were presented as μM (per 50 μg (S3) or 100 μg (S2) mitochondrial proteins). Compounds with IC50: <100 μM (S3) and/or UC50: <200 μM (S2) were considered as high-risk on mitochondrial toxicity. Compounds with 25-50% changes in inhibition and/or uncoupling were categorized as medium-risk, since compounds with >25% changes are considered as responders.
Toxicity associated with mitochondrial dysfunction has presented a problem for promising potential antibiotics as we as other types of therapeutics. The mitochondrial oxygen consumption rate (OCR) assay is considered a reliable indicator of potential internal organ toxicity issues that may occur with powerful antibiotics. The carboxylate compounds of the invention show unexpected lower toxicity than prior art “glycine nitrile” arylomycin analogs (see, e.g., WO 2018/149419) in the mitochondrial oxygen consumption rate (OCR) assay.

[6] = ATCC17978, 50% v/v mouse serum, compounds of Table 1, Table 7, read-out: A. baumanii 17978 Serum MIC
[7] = ATCC700603, 50% v/v mouse serum, compounds of Table 1, Table 7, read-out: K. pneumoniae 700603 Serum MIC
[8] = ATCC25922, 50% v/v mouse serum, compounds of Table 1, Table 7
[9] = PA01, 50% v/v mouse serum, compounds of Table 1, Table 7
[10] = ATCC17978, 50% v/v mouse serum in Mueller Hinton II cation adjusted Broth, 35° C., 22 hours, Table 4, read-out: A. baumanii 17978 Serum MIC
[11] = ATCC17978, 50% v/v mouse serum in Mueller Hinton II cation adjusted Broth, 35° C., 22 hours, Table 5, read-out: Acinetobacter baumanii 17978 Serum MIC
[12] = ATCC700603, 50% v/v mouse serum in Mueller Hinton II cation adjusted Broth, 35° C., 22 hours, Table 4, read-out: K pneumoniae 700603 Serum MIC
[13] = ATCC25922, 50% v/v mouse serum in Mueller Hinton II cation adjusted Broth, 35° C., 22 hours, Table 4
[14] = PA01, 50% v/v mouse serum in Mueller Hinton II cation adjusted Broth, 35° C., 22 hours, Table 4

Row | IC50 ([5]; glutamate/malate, Table 3) [µM] | MIC [1, 10] [µM] | MIC [1, 11] [µM] | MIC [2, 12] [µM] | MIC [3, 13] [µM] | MIC [4, 14] [µM] | SMILES | other results
1 | 261 | 11 (≈ 11.1 µg/mL) | 11 (≈ 11.1 µg/mL) | 0.5 (≈ 0.504 µg/mL) | 0.5 (≈ 0.504 µg/mL) | 3.3 (≈ 3.33 µg/mL) | Cc1nc(-c2ccc(C(C)(C)C)cc2)nc(N)c1C(=O)N[C@@H](CNS(N)(=O)=O)C(=O)N(C)[C@@H]1C(=O)N[C@@H](C)C(=O)N[C@H](C(=O)O)Cc2ccc(OC[C@H](O)CN)c(c2)-c2cc1cc(OC[C@H](O)CN)c2O [Example 2, (8S,11S,14S)-18-hydroxy-11-methyl-14-[methyl-[(2S)-2-[[4-amino-2-(4-tert-butylphenyl)-6-methyl-pyrimidine-5-carbonyl]amino]-3-(sulfamoylamino)-propanoyl]amino]-10,13-dioxo-3,17-bis[(2R)-3-amino-2-hydroxy-propoxy]-9,12-diazatricyclo-[13.3.1.12,6]icosa-1(18),2(20),3,5,15(19), 16-hexaene-8-carboxylic acid] | –
2 | 69 | 12 (≈ 12.2 µg/mL) | 12 (≈ 12.2 µg/mL) | 0.75 (≈ 0.765 µg/mL) | 0.75 (≈ 0.765 µg/mL) | 6 (≈ 6.12 µg/mL) | Cc1nc(-c2ccc3c(c2)CCC3(C)C)nc(N)c1C(=O)N[C@@H](CNS(N)(=O)=O)C(=O)N(C)[C@@H]1C(=O)N[C@@H](C)C(=O)N[C@H](C(=O)O)Cc2ccc(OC[C@H](O)CN)c(c2)-c2cc1cc(OC[C@H](O)CN)c2O [Example 66, (8S,11S,14S)-14-[[(2S)-2-[[4-amino-2-(1,1-dimethylindan-5-yl)-6-methyl-pyrimidine-5-carbonyl]-amino]-3-(sulfamoyl-amino)propanoyl]-methyl-amino]-3,17-bis[(2R)-3-amino-2-hydroxy-propoxy]-18-hydroxy-11-methyl-10,13-dioxo-9,12-diazatricyclo-[13.3.1.12,6]icosa-1(18),2(20),3,5,15(19), 16-hexaene-8-carboxylic acid] | –
3 | 22 | 8 (≈ 7.42 µg/mL) | 8 (≈ 7.42 µg/mL) | 0.16 (≈ 0.148 µg/mL) | 0.22 (≈ 0.204 µg/mL) | 16 (≈ 14.8 µg/mL) | Cc1nc(-c2ccc(C(C)(C)C)cc2)ncc1C(=O)N[C@@H](CCN)C(=O)N(C)[C@@H]1C(=O)N[C@@H](C)C(=O)N[C@H](C(=O)O)Cc2ccc(OC[C@H](O)CN)c(c2)-c2cc1cc(OC[C@H](O)CN)c2O [Example 23, (8S,11S,14S)-18-hydroxy-11-methyl-14-[methyl-[(2S)-4-amino-2-[[2-(4-tert-butylphenyl)-4-methyl-pyrimidine-5-carbonyl]amino]-butanoyl]amino]-10,13-dioxo-3,17-bis[(2R)-3-amino-2-hydroxy-propoxy]-9,12-diazatricyclo-[13.3.1.12,6]icosa-1(18),2(20),3,5,15(19), 16-hexaene-8-carboxylic acid] | –

More lines, now with the values behind:

Row | SMILES | IC50 ([5]; glutamate/malate, Table 3) [µM] | MIC [1, 10] [µM] | MIC [1, 11] [µM] | MIC [2, 12] [µM] | MIC [3, 13] [µM] | MIC [4, 14] [µM] | other results
4 | Cc1nc(-c2ccc(C(C)(C)C)cc2)nc(C)c1C(=O)N[C@@H](CCN)C(=O)N(C)[C@@H]1C(=O)N[C@@H](C)C(=O)N[C@H](C(=O)NCC#N)Cc2ccc(O)c(c2)-c2cc1ccc2OCCN (racemic) [Example 254] | – | – | – | – | – | – | MIC [1, 6]: 9.3 µM (≈ 8.01 µg/mL); MIC [2, 7]: 0.73 µM (≈ 0.629 µg/mL); MIC [3, 8]: 0.19 µM (≈ 0.164 µg/mL); MIC [4, 9]: 13 µM (≈ 11.2 µg/mL); IC50 ([5]; compounds of Table 1, Table 6): 20 µM
5 | Cc1nc(-c2ccc(OCCC(C)(C)C)cc2)nc(N)c1C(=O)N[C@@H](CCN)C(=O)N(C)[C@@H]1C(=O)N[C@@H](C)C(=O)N[C@H](C(=O)O)Cc2ccc(OC[C@H](O)CN)c(c2)-c2cc1cc(OC[C@H](O)CN)c2O [Example 18, (8S,11S,14S)-18-hydroxy-11-methyl-14-[methyl-[(2S)-4-amino-2-[[4-amino-2-[4-(3,3-dimethyl-butoxy)phenyl]-6-methyl-pyrimidine-5-carbonyl]amino]-butanoyl]amino]-10,13-dioxo-3,17-bis[(2R)-3-amino-2-hydroxy-propoxy]-9,12-diazatricyclo-[13.3.1.12,6]icosa-1(18),2(20),3,5,15(19), 16-hexaene-8-carboxylic acid] | 119 | – | – | – | – | – | MIC ([1]; ATCC17978, 22 h, read-out: A. baumanii 17978 Serum MIC): 8 µM (≈ 7.9 µg/mL); MIC ([1]; ATCC17978, 22 h, read-out: Acinetobacter baumanii 17978 Serum MIC): 8 µM (≈ 7.9 µg/mL); MIC ([2]; ATCC700603, 22 h, read-out: K pneumoniae 700603 Serum MIC): 0.25 µM (≈ 0.247 µg/mL); MIC ([3]; ATCC25922, 22 h): 0.25 µM (≈ 0.247 µg/mL); MIC ([4]; PA01, 22 h): 4 µM (≈ 3.95 µg/mL)
6 | C[C@@H]1NC(=O)[C@@H](N(C)C(=O)[C@H](CNS(N)(=O)=O)NC(=O)c2c(N)nc(-c3ccc(C(C)(C)C)cc3)nc2Cl)c2cc(OC[C@H](O)CN)c(O)c(c2)-c2cc(ccc2OC[C@H](O)CN)C[C@@H](C(=O)O)NC1=O [Example 53, (8S,11S,14S)-14-[[(2S)-2-[[4-amino-2-(4-tert-butylphenyl)-6-chloro-pyrimidine-5-carbonyl]amino]-3-(sulfamoylamino)-propanoyl]-methyl-amino]-3,17-bis[(2R)-3-amino-2-hydroxy-propoxy]-18-hydroxy-11-methyl-10,13-dioxo-9,12-diazatri-cyclo[13.3.1.12,6]icosa-1(18),2(20),3,5,15(19), 16-hexaene-8-carboxylic acid] | – | 6 (≈ 6.17 µg/mL) | 6 (≈ 6.17 µg/mL) | 0.5 (≈ 0.514 µg/mL) | 0.38 (≈ 0.391 µg/mL) | 3 (≈ 3.09 µg/mL) | –
7 | Cc1nc(-c2ccc(C(C)(C)C)cc2)nc(C)c1C(=O)N[C@@H](CCN)C(=O)N(C)[C@@H]1C(=O)N[C@@H](C)C(=O)N[C@H](C(=O)NCC#N)Cc2ccc(O)c(c2)-c2cc1cc(OCCN)c2OCCN [Example 633] | – | – | – | – | – | – | MIC [1, 6]: 5 µM (≈ 4.6 µg/mL); MIC [2, 7]: 0.063 µM (≈ 0.058 µg/mL); MIC [3, 8]: 0.063 µM (≈ 0.058 µg/mL); MIC [4, 9]: 4 µM (≈ 3.68 µg/mL)
8 | Cc1nc(-c2ccc(CC3CC3)cc2)nc(N)c1C(=O)N[C@@H](CNS(N)(=O)=O)C(=O)N(C)[C@@H]1C(=O)N[C@@H](C)C(=O)N[C@H](C(=O)O)Cc2ccc(OC[C@H](O)CN)c(c2)-c2cc1cc(OC[C@H](O)CN)c2O [Example 34, (8S,11S,14S)-14-[[(2S)-2-[[4-amino-2-[4-(cyclopropyl-methyl)phenyl]-6-methyl-pyrimidine-5-carbonyl]amino]-3-(sulfamoylamino)-propanoyl]-methyl-amino]-3,17-bis[(2R)-3-amino-2-hydroxy-propoxy]-18-hydroxy-11-methyl-10,13-dioxo-9,12-diazatricyclo-[13.3.1.12,6]icosa-1(18),2(20),3,5,15(19), 16-hexaene-8-carboxylic acid] | – | 16 (≈ 16.1 µg/mL) | 16 (≈ 16.1 µg/mL) | 0.75 (≈ 0.755 µg/mL) | 0.5 (≈ 0.503 µg/mL) | 12 (≈ 12.1 µg/mL) | –
